ChEMBL document CHEMBL1151518, “Synthesis, evaluation and Tc-99m complexation of a hydrazinonicotinyl conjugate of a GP IIb/IIIa antagonist cyclic peptide for the detection of deep vein thrombosis” (Bioorg Med Chem Lett, 1997)

What follows are compounds tested against Integrin alpha-IIb/beta-3 (Canis lupus familiaris) (assay: Inhibition of 125I-fibrinogen binding to alpha IIb beta-3 integrin as inhibition of activated platelets).

CCOC(C)SCC(=O)NCC(CCC(=O)NCCCCCC(=O)Nc1cc2cc(c1)C(=O)N[C@H](C(C)C)C(=O)N(C)[C@@H](CCCN=C(N)N)C(=O)NCC(=O)N[C@@H](CC(=O)O)C(=O)NC2)NC(=O)CSC(C)OCC (stereo partly drawn) and CCOC(C)SCC(=O)NCC(CCC(=O)NCCCC[C@H]1NC(=O)c2cccc(c2)CNC(=O)[C@H](CC(=O)O)NC(=O)CNC(=O)[C@H](CCCN=C(N)N)N(C)C1=O)NC(=O)CSC(C)OCC (stereo partly drawn) are within 1.5-fold of each other in IC50: 13 nM for the first, 11 nM for the second.

Going from CN1C(=O)[C@@H](CCCCNC(=O)c2ccc(NNC(=O)OC(C)(C)C)nc2)NC(=O)c2cccc(c2)CNC(=O)[C@H](CC(=O)O)NC(=O)CNC(=O)[C@@H]1CCCN=C(N)N to CC(C)[C@H]1NC(=O)c2cc(cc(NC(=O)CCCCCNC(=O)c3ccc(NNC(=O)OC(C)(C)C)nc3)c2)CNC(=O)[C@H](CC(=O)O)NC(=O)CNC(=O)[C@H](CCCN=C(N)N)N(C)C1=O, the IC50 falls from 16 nM to 9 nM (1.8-fold). The second is the more potent here.

CC(C)[C@H]1NC(=O)c2cccc(c2)CNC(=O)[C@H](CC(=O)O)NC(=O)CNC(=O)[C@H](CCCN=C(N)N)N(C)C1=O and CC(C)[C@H]1NC(=O)c2cc(cc(NC(=O)CCCCCN)c2)CNC(=O)[C@H](CC(=O)O)NC(=O)CNC(=O)[C@H](CCCN=C(N)N)N(C)C1=O are within 1.5-fold of each other in IC50: 6 nM for the first, 5 nM for the second.

Going from CC(C)[C@H]1NC(=O)c2cc(cc(NC(=O)CCCCCNC(=O)c3ccc(CN(CCSC(c4ccccc4)(c4ccccc4)c4ccccc4)CC(=O)NCCSC(c4ccccc4)(c4ccccc4)c4ccccc4)cc3)c2)CNC(=O)[C@H](CC(=O)O)NC(=O)CNC(=O)[C@H](CCCN=C(N)N)N(C)C1=O to CC(C)[C@H]1NC(=O)c2cc(cc(NC(=O)CCCCCNC(=O)c3ccc(NN)nc3)c2)CNC(=O)[C@H](CC(=O)O)NC(=O)CNC(=O)[C@H](CCCN=C(N)N)N(C)C1=O, the IC50 falls from greater than 1000 nM to 8 nM. The second is the more potent here.
